Legend:
[1] = system: Helicobacter pylori (CPY-433 F4); experiment: Bacteria eradication effect of urease inhibitor (in vivo) in infected mice; conditions: male ICR mice, 10 mg/kg p.o. twice daily, lansoprazole 30 mg/kg s.c. once daily before first dose
[2] = biological target: T1, Helicobacter pylori-derived urease (Helicobacter pylori, UniProt P69996); experiment: Screening of urease inhibitors (ammonia yield from urea); format: biochemical
T1 construct: an urease solution prepared from Helicobacter pylori; endogenous in cells
Protocol: Screening of Urease Inhibitors
One hundred (100) μl of 100 mM Bis-Tris buffer (pH 6.5) and 60 μl of an urease solution prepared from Helicobacter pylori were added to 20 μl of a test drug dissolved in 0.1% dimethylformamide solution. The mixture was incubated at room temperature for 30 minutes, and then 20 μl of 100 mM urea was added. The mixture was kept at room temperature for 10 minutes, and then the yielded ammonia in the incubation mixture was measured using a commercial test kit (Ammonia Test Wako®; Wako Pure Chemical). The percent inhibition against the yield of ammonia in the solvent addition group was calculated to obtain the IC50 value.

[3] = 4 days for therapy, control 0/5

T1 sequence (P69996 whole entry, looked up): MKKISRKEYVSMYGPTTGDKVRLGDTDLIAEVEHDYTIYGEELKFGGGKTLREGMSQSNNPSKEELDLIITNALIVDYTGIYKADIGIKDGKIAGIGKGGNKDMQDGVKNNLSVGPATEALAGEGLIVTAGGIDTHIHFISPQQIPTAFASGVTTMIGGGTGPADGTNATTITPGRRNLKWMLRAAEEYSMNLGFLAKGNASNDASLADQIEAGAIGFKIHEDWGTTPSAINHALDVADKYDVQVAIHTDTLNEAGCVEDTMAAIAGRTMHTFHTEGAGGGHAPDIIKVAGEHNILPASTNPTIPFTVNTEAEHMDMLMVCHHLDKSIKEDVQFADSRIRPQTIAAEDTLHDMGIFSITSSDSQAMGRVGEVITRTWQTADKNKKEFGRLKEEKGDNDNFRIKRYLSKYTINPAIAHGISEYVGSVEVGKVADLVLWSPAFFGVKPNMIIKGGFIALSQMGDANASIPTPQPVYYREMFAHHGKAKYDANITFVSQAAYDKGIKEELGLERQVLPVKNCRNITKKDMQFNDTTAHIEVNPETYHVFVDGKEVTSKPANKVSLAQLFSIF

In the case of `CCc1ccc(C(=O)NP(N)(N)=O)o1` [Example 44, N-(Diaminophosphinyl)-5-ethyl-2-furancarboxamide], the “Eradication Rate” value ([1]; 2 days for therapy) is reported as 1/5 and the IC50 [2] is reported as 14 nM.

In the case of `CCc1ccc(C(=O)NP(N)(N)=O)s1` [Example 9, N-(Diaminophosphinyl)-5-ethyl-2-thiophenecarboxamide], the “Eradication Rate” value ([1]; 2 days for therapy) is reported as 1/5 and the IC50 [2] is reported as 13 nM.

In the case of `N#Cc1ccsc1C(=O)NP(N)(N)=O` [Example 23, N-(Diaminophosphinyl)-3-cyano-2-thiophenecarboxamide], the “Eradication Rate” value ([1]; 2 days for therapy) is reported as 1/5 and the IC50 [2] is reported as 2.2 nM.

In the case of `NP(N)(=O)NC(=O)c1ccsc1` [Example 2, N-(Diaminophosphinyl)-3-thiophenecarboxamide], the “Eradication Rate” value [1, 3] is reported as 2/5 and the IC50 [2] is reported as 16 nM.

For `NP(N)(=O)NC(=O)c1ccc(Cl)s1` [Example 5, N-(Diaminophosphinyl)-5-chloro-2-thiophenecarboxamide], the “Eradication Rate” value [1, 3] was 3/5 and the IC50 [2] was 3 nM.

In the case of `NP(N)(=O)NC(=O)c1sccc1C(F)F` [Example 19, N-(Diaminophosphinyl)-3-difluoromethyl-2-thiophenecarboxamide], the “Eradication Rate” value ([1]; 2 days for therapy) is reported as 1/5 and the IC50 [2] is reported as 4.6 nM.

For `NP(N)(=O)NC(=O)c1ccc(Br)cc1` [Reference Example 22, N-(Diaminophosphinyl)-4-bromobenzamide], the “Eradication Rate” value [1, 3] was 1/5 and the IC50 [2] was 9.3 nM.

With `CC(=O)c1ccc(C(=O)NP(N)(N)=O)s1` [Example 17, N-(Diaminophosphinyl)-5-acetyl-2-thiophenecarboxamide] the “Eradication Rate” value ([1]; 2 days for therapy) was 1/5 and the IC50 [2] was 8.2 nM.

With `NP(N)(=O)NC(=O)c1cc(Cl)sc1Cl` [Example 25, N-(Diaminophosphinyl)-2,5-dichloro-3-thiophenecarboxamide] the “Eradication Rate” value ([1]; 2 days for therapy) was 1/5 and the IC50 [2] was 1.1 nM.

In the case of `NP(N)(=O)NC(=O)c1ccsc1Br` [Example 26, N-(Diaminophosphinyl)-2-bromo-3-thiophenecarboxamide], the “Eradication Rate” value ([1]; 2 days for therapy) is reported as 2/5 and the IC50 [2] is reported as 1.3 nM.

With `NP(N)(=O)NC(=O)c1coc(Br)c1` [Example 41, N-(Diaminophosphinyl)-5-bromo-3-furancarboxamide] the “Eradication Rate” value ([1]; 2 days for therapy) was 1/5 and the IC50 [2] was 7.7 nM.

Work on `NP(N)(=O)NC(=O)Cc1noc2ccccc12` [Example 75, N-(Diaminophosphinyl)-3-benzisoxazolylacetamide] yielded an IC50 [2] of 22 nM.

Compound `N#Cc1ccc(OCC(=O)NP(N)(N)=O)cc1` [Example 57, N-(Diaminophosphinyl)-4-cyanophenoxyacetamide] has an IC50 [2] of 7.5 nM.

`Cc1cc(C(=O)NP(N)(N)=O)c(C(F)(F)F)o1` [Example 48, N-(Diaminophosphinyl)-2-trifluoromethyl-5-methyl-3-furancarboxamide] showed an IC50 [2] of 8.3 nM.

In the case of `Nc1ccc(OCC(=O)NP(N)(N)=O)cc1` [compound 44, N-(Diaminophosphinyl)-4-aminophenoxyacetamide], the IC50 [2] is reported as 11 nM.

Compound `NP(N)(=O)NC(=O)c1ccc([N+](=O)[O-])s1` [Example 10, N-(Diaminophosphinyl)-5-nitro-thiophenecarboxamide] has an IC50 [2] of 3.6 nM.

Work on `NP(N)(=O)NC(=O)CSc1nc2cc(Cl)ccc2s1` [Example 65, N-(Diaminophosphinyl)-5-chloro-2-benzothiazolylthioacetamide] yielded an IC50 [2] of 2.3 nM.

With `N#Cc1ccc(CCC(=O)NP(N)(N)=O)cc1` [compound 40, N-(Diaminophosphinyl)-3-(4-cyanophenyl)propionamide] the IC50 [2] was 18 nM.

For `NP(N)(=O)NC(=O)c1ccc(C(F)F)o1` [Example 47, N-(Diaminophosphinyl)-5-difluoromethyl-2-furancarboxamide], the IC50 [2] was 1.9 nM.

Compound `Cc1ccc(C(=O)NP(N)(N)=O)cc1` [Reference Example 15, N-(Diaminophosphinyl)-4-methylbenzamide] has an IC50 [2] of 17 nM.

Work on `NP(N)(=O)NC(=O)c1sccc1Cl` [Example 14, N-(Diaminophosphinyl)-3-chloro-2-thiophenecarboxamide] yielded an IC50 [2] of 1.1 nM.

`N#CC(=Cc1cccs1)C(=O)NP(N)(N)=O` [Example 79, N-(Diaminophosphinyl)-2-cyano-3-(2-thienyl)propenamide] gave an IC50 [2] of 6 nM.

`NP(N)(=O)NC(=O)c1cc(F)cc(F)c1` [compound 21, N-(Diaminophosphinyl)-3,5-difluorobenzamide] was tested, and the IC50 [2] was 7.9 nM.

`NP(N)(=O)NC(=O)c1ccc(Br)o1` [Example 39, N-(Diaminophosphinyl)-5-bromo-2-furancarboxamide] gave an IC50 [2] of 2.2 nM.

For `NP(N)(=O)NC(=O)c1cccnc1` [Reference Example 2, N-(Diaminophosphinyl)-3-pyridinecarboxamide], the IC50 [2] was 9.6 nM.

`NP(N)(=O)NC(=O)COc1cccc(F)c1` [Example 60, N-(Diaminophosphinyl)-3-fluorophenoxyacetamide] gave an IC50 [2] of 3.6 nM.

Work on `NP(N)(=O)NC(=O)c1cc(Cl)cs1` [Example 84, N-(Diaminophosphinyl)-4-chloro-2-thiophenecarboxamide] yielded an IC50 [2] of 2.5 nM.

Compound `NP(N)(=O)NC(=O)c1ccc([N+](=O)[O-])cc1` [Reference Example 3, N-(Diaminophosphinyl)-4-nitrobenzamide] has an IC50 [2] of 6.6 nM.

`COc1csc(C(=O)NP(N)(N)=O)c1` [Example 24, N-(Diaminophosphinyl)-4-methoxy-2-thiophenecarboxamide] gave an IC50 [2] of 9.1 nM.

Work on `NP(N)(=O)NC(=O)c1ccsc1Cl` [Example 38, N-(Diaminophosphinyl)-2-chloro-3-thiophenecarboxamide] yielded an IC50 [2] of 1.7 nM.

With `NP(N)(=O)NC(=O)C=Cc1cccs1` [Example 78, N-(Diaminophosphinyl)-3-(2-thienyl)propenamide] the IC50 [2] was 4.7 nM.

Compound `CS(=O)(=O)c1ccc(C(=O)NP(N)(N)=O)s1` [Example 18, N-(Diaminophosphinyl)-5-methanesulfonyl-2-thiophenecarboxamide] has an IC50 [2] of 11 nM.

In the case of `NP(N)(=O)NC(=O)c1cccc2ccccc12` [compound 26, N-(Diaminophosphinyl)-1-naphthalenecarboxamide], the IC50 [2] is reported as 13 nM.

`NP(N)(=O)NC(=O)CCc1ccccc1` [Reference Example 37, N-(Diaminophosphinyl)-3-phenylpropionamide] was tested, and the IC50 [2] was 17 nM.

`Cc1onc(-c2ccccc2)c1C(=O)NP(N)(N)=O` [Example 73, N-(Diaminophosphinyl)-5-methyl-3-phenyl-4-isoxazolecarboxamide] showed an IC50 [2] of 55 nM.

In the case of `NP(N)(=O)NC(=O)c1ccc(C(F)F)s1` [Example 13, N-(Diaminophosphinyl)-5-difluoromethyl-2-thiophenecarboxamide], the IC50 [2] is reported as 5.2 nM.

With `NP(N)(=O)NC(=O)Cn1cnc2ccccc21` [Example 83, N-(Diaminophosphinyl)-1-benzimidazolylacetamide] the IC50 [2] was 7 nM.

With `NP(N)(=O)NC(=O)c1ccc(Br)s1` [Example 6, N-(Diaminophosphinyl)-5-bromo-2-thiophenecarboxamide] the IC50 [2] was 3.5 nM.

In the case of `NP(N)(=O)NC(=O)C=Cc1nc2cc(Cl)ccc2o1` [Example 72, N-(Diaminophosphinyl)-3-(5-chloro-2-benzoxazolyl)propenamide], the IC50 [2] is reported as 3.6 nM.

In the case of `NP(N)(=O)NC(=O)CCc1nc2ccccc2o1` [Example 82, N-(Diaminophosphinyl)-3-(2-benzoxazolyl)propionamide], the IC50 [2] is reported as 27 nM.

With `NP(N)(=O)NC(=O)c1cccc(Cl)c1` [compound 27, N-(Diaminophosphinyl)-3-chlorobenzamide] the IC50 [2] was 3.9 nM.

For `NP(N)(=O)NC(=O)CCc1ccc(F)cc1` [Reference Example 38, N-(Diaminophosphinyl)-3-(4-fluorophenyl)propionamide], the IC50 [2] was 9.7 nM.

With `Cc1cc(C(=O)NP(N)(N)=O)sc1Cl` [Example 35, N-(Diaminophosphinyl)-5-chloro-4-methyl-2-thiophenecarboxamide] the IC50 [2] was 11 nM.

`NP(N)(=O)NC(=O)c1cscc1Br` [Example 37, N-(Diaminophosphinyl)-4-bromo-3-thiophenecarboxamide] was tested, and the IC50 [2] was 1.8 nM.

`NP(N)(=O)NC(=O)c1ccccc1F` [Reference Example 16, N-(Diaminophosphinyl)-2-fluorobenzamide] gave an IC50 [2] of 2.7 nM.

`Cc1sc(Cl)cc1C(=O)NP(N)(N)=O` [Example 33, N-(Diaminophosphinyl)-5-chloro-2-methyl-3-thiophenecarboxamide] showed an IC50 [2] of 1.9 nM.

Work on `NP(N)(=O)NC(=O)c1cccs1` [Example 1, N-(Diaminophosphinyl)-2-thiophenecarboxamide] yielded an IC50 [2] of 1.2 nM.

`NP(N)(=O)NC(=O)C=Cc1ccc(Cl)c(Cl)c1` [compound 36, N-(Diaminophosphinyl)-3,4-dichlorocinnamamide] showed an IC50 [2] of 8.9 nM.

For `Cc1ccc(C(=O)NP(N)(N)=O)o1` [Example 43, N-(Diaminophosphinyl)-5-methyl-2-furancarboxamide], the IC50 [2] was 6.2 nM.

For `NP(N)(=O)NC(=O)C=Cc1cccc(F)c1` [compound 35, N-(Diaminophosphinyl)-3-fluorocinnamamide], the IC50 [2] was 17 nM.

For `Cc1ccoc1C(=O)NP(N)(N)=O` [Example 92, N-(Diaminophosphinyl)-3-methyl-2-furancarboxamide], the IC50 [2] was 6 nM.

Work on `NP(N)(=O)NC(=O)COc1ccccc1Cl` [Example 59, N-(Diaminophosphinyl)-2-chlorophenoxyacetamide] yielded an IC50 [2] of 5.4 nM.

Compound `NP(N)(=O)NC(=O)c1ccc(F)cc1F` [Reference Example 10, N-(Diaminophosphinyl)-2,4-difluorobenzamide] has an IC50 [2] of 7.8 nM.

For `Cc1cc(C(=O)NP(N)(N)=O)c(C)o1` [Example 49], the IC50 [2] was 27 nM.

Compound `N#Cc1ccc(C=CC(=O)NP(N)(N)=O)cc1` [compound 32, N-(Diaminophosphinyl)-4-cyanocinnamamide] has an IC50 [2] of 14 nM.

Reference: patent US5840917A, “Phosphorylamides, their preparation and use” (Takeda Chemical Industries, Ltd., priority 1995, dated 1998)
